These results are taken from ChEMBL document CHEMBL3352031, “Discovery of diamine-linked 17-aroylamido-17-demethoxygeldanamycins as potent Hsp90 inhibitors” (Eur J Med Chem, 2014).

Calls of active or inactive are those of the source. The rule behind the calls is not given here.

As a reminder, the IC50 is the concentration needed to halve the response being measured. In general, T/C refers to the ratio of treated to control.

In data set [1] the test system is Mus musculus. As to the kind of experiment: Hepatotoxicity in Kunming mouse assessed as serum aspartate aminotransferase level at 10 mg/kg, iv (reference value: 197.2 +/- 11.2 U/L). To be noted: in vivo. Format: toxicity, organism-based. Further details: dose 10 mg/kg, route intravenous.
Data set [2] has as its system Mus musculus. Nature of the data set: Hepatotoxicity in Kunming mouse assessed as serum alanine aminotransferase level at 10 mg/kg, iv (reference value: 60.7 +/- 6.9U/L). The class given is toxicity, organism-based. Further details: dose 10 mg/kg, route intravenous. The following applies: in vivo.
The target in data set [3] is Heat shock protein HSP 90-alpha (Homo sapiens, UniProt P07900). Nature of the data set: Inhibition of GA-FITC binding to human recombinant Hsp90alpha incubated for 5 hrs by fluorescence polarization assay. (In general: Fluorescence polarisation rises when a labelled molecule tumbles more slowly, as on binding a larger partner.)
The test system of data set [4] is MDA-MB-231. As to the kind of experiment: cells. To be noted: Homo sapiens, MDA-MB-231, 72 h.
Description: Cytotoxicity against human MDA-MB-231 cells after 72 hrs by MTT assay
The target of data set [5] is T1, Heat shock protein HSP90 (Homo sapiens) (UniProt P07900+P08238). As to the kind of experiment: Inhibition Hsp90 in human MDA-MB 231 cells assessed as reduction in CDK4 protein level at 0.5 and 5 uM incubated for 24 hrs by Western blot method. The class given is cell-based.
Data set [6] deals with T1, Heat shock protein HSP90 (Homo sapiens). Nature of the data set: Inhibition Hsp90 in human MDA-MB 231 cells assessed as reduction in AKT protein level at 0.5 and 5 uM incubated for 24 hrs by Western blot method. The class given is cell-based. A general note: In western blotting, separated proteins are transferred to a membrane and probed.
Data set [7] has the same target. Nature of the data set: Inhibition Hsp90 in human MDA-MB 231 cells assessed as reduction in EGFR protein level at 0.5 and 5 uM incubated for 24 hrs by Western blot method. The class given is cell-based.
The target is the same in data set [8]. As to the kind of experiment: Inhibition Hsp90 in human MDA-MB 231 cells assessed as reduction in HER2 protein level at 0.5 and 5 uM incubated for 24 hrs by Western blot method. Format: cell-based.
Data set [9] can be described thus: Safety index, ratio of IC50 for 17-AAG to IC50 for test compound against HUVEC cells after 72 hrs by MTT assay. Format: ADME, cell-based. The following applies: human, read-out: Ratio IC50.
The nature of data set [10]: Safety index, ratio of IC50 for GA to IC50 for test compound against HUVEC cells after 72 hrs by MTT assay. Format: cell-based. The following applies: human, read-out: Ratio IC50.
Data set [11] can be described thus: Safety index, ratio of IC50 for 17-AAG to IC50 for test compound against human HL7702 cells after 72 hrs by MTT assay. Format: cell-based, L02. To be noted: read-out: Ratio IC50. Background: Formazan colour is commonly taken as a measure of viable cells.
Data set [12] is described as follows: Safety index, ratio of IC50 for GA to IC50 for test compound against human HL7702 cells after 72 hrs by MTT assay. To be noted: read-out: Ratio IC50. Format: ADME, cell-based, L02.
Data set [13] deals with MDA-MB-231. Nature of the data set: Antitumor activity against human MDA-MB-231 cells xenografted in athymic nude mouse assessed as tumor growth inhibition at 10 mg/kg, iv dosed every 3 day for 15 consecutive days. The class given is functional. To be noted: MDA-MB-231, 72 h, read-out: TGI.
For data set [14], the system named is MDA-MB-231. As to the kind of experiment: Antitumor activity against human MDA-MB-231 cells xenografted in athymic nude mouse assessed as reduction in tumor weight at 10 mg/kg, iv dosed every 3 day for 15 consecutive days. The class given is functional.
Data set [15] concerns HUVEC. As to the kind of experiment: cells. To be noted: Homo sapiens, 72 h.
Description: Cytotoxicity against HUVEC cells after 72 hrs by MTT assay
Data set [16] can be described thus: cells. The following applies: Homo sapiens, L02, 72 h.
Description: Cytotoxicity against human HL7702 cells after 72 hrs by MTT assay
Data set [17] deals with A549. Nature of the data set: cells. To be noted: Homo sapiens, A549, 72 h.
Description: Cytotoxicity against human A549 cells after 72 hrs by MTT assay
For data set [18], the system named is HeLa. Nature of the data set: cells. To be noted: Homo sapiens, 72 h.
Description: Cytotoxicity against human HeLa cells after 72 hrs by MTT assay
Data set [19] has as its system A-431. Nature of the data set: cells. To be noted: Homo sapiens, A-431, 72 h.
Description: Cytotoxicity against human A431 cells after 72 hrs by MTT assay
The nature of data set [20]: cells. The following applies: Homo sapiens, BGC-823, 72 h.
Description: Cytotoxicity against human BGC823 cells after 72 hrs by MTT assay
For data set [21], the system named is SW480. As to the kind of experiment: cells. To be noted: Homo sapiens, SW480, 72 h.
Description: Cytotoxicity against human SW480 cells after 72 hrs by MTT assay
The subject of data set [22] is HepG2. As to the kind of experiment: cells. To be noted: Homo sapiens, HepG2, 72 h.
Description: Cytotoxicity against human HepG2 cells after 72 hrs by MTT assay

As for `COc1ccc(/C=C/C(=O)NCCCCCCNC2=C3C[C@@H](C)C[C@H](OC)[C@H](O)[C@@H](C)/C=C(\C)[C@H](OC(N)=O)[C@@H](OC)/C=C\C=C(/C)C(=O)NC(=CC2=O)C3=O)cc1OC`, the Activity amounted to 193.4 U/L in [1] and 52.8 U/L in data set [2]. In addition, the IC50 in [3] stood at 410 nM; in [4], 300 nM.
For the compound `COC1=C2C[C@@H](C)C[C@H](OC)[C@H](O)[C@@H](C)/C=C(\C)[C@H](OC(N)=O)[C@@H](OC)/C=C\C=C(/C)C(=O)NC(=CC1=O)C2=O` [GELDANAMYCIN], the Activity in data set [1] was 317.2 U/L; in data set [2] it was 273 U/L.
As for `COc1cc(/C=C/C(=O)NCCCCNC2=C3C[C@@H](C)C[C@H](OC)[C@H](O)[C@@H](C)/C=C(\C)[C@H](OC(N)=O)[C@@H](OC)/C=C\C=C(/C)C(=O)NC(=CC2=O)C3=O)ccc1O`, the Activity in [1] was determined as 224.8 U/L; in data set [2], 75.3 U/L. In addition, the half-maximal inhibitory concentration (IC50) in data set [3] is 970 nM; in data set [4], 550 nM.
In the case of `COc1cc(/C=C/C(=O)N2CCC(CNC3=C4C[C@@H](C)C[C@H](OC)[C@H](O)[C@@H](C)/C=C(\C)[C@H](OC(N)=O)[C@@H](OC)/C=C\C=C(/C)C(=O)NC(=CC3=O)C4=O)CC2)ccc1O`, the Activity is given as 260.8 U/L in [1] and 148.6 U/L in [2]. In addition, the IC50 amounted to 1840 nM in data set [3] and 940 nM in [4].
For the compound `COc1cc(/C=C/C(=O)NCCCCCCNC2=C3C[C@@H](C)C[C@H](OC)[C@H](O)[C@@H](C)/C=C(\C)[C@H](OC(N)=O)[C@@H](OC)/C=C\C=C(/C)C(=O)NC(=CC2=O)C3=O)cc(OC)c1OC`, the Activity came out at 181 U/L in data set [1] and 40.4 U/L in data set [2]. Moreover, the IC50 stood at 290 nM in [3]; 190 nM in data set [4]; 1350 nM in [15]; 4950 nM in data set [16]; 278 nM in data set [17]; 284 nM in [18]. Also, the IC50 in data set [19] was 773 nM; in data set [20], 527 nM; in [21], 796 nM; in data set [22], 562 nM. The inhibition entry in data set [5], in data set [6], in data set [7] and in data set [8] was “Active” in each case. In addition, the selectivity ratio at 72 h in [9] amounted to 5; in data set [10], 68; in data set [11] it was 50; in data set [12], 35. The inhibition in vivo at 10 mg/kg in data set [13] was determined as 81%. Besides, in [14], the T/C is listed as 21%.
In the case of `C=CCNC1=C2C[C@@H](C)C[C@H](OC)[C@H](O)[C@@H](C)/C=C(\C)[C@H](OC(N)=O)[C@@H](OC)/C=C\C=C(/C)C(=O)NC(=CC1=O)C2=O` [TANESPIMYCIN], the values for the Activity in data set [1] and in [2] were 237.4 U/L and 66.6 U/L, respectively. The inhibition in vivo at 10 mg/kg in [13] was 73%. The T/C in data set [14] is given as 28%. For the same compound, the 50% inhibitory concentration (IC50) in [4] was 280 nM; in [15], 282 nM; in [16] it was 99 nM; in [17], 81 nM; in [18] it was 128 nM; in data set [19], 89 nM. Also, the values for the IC50 in data set [20], in data set [21] and in [22] were 847 nM, 572 nM and 91 nM, respectively.
On to `COc1cc(/C=C/C(=O)NCCCCCCNC2=C3C[C@@H](C)C[C@H](OC)[C@H](O)[C@@H](C)/C=C(\C)[C@H](OC(N)=O)[C@@H](OC)/C=C\C=C(/C)C(=O)NC(=CC2=O)C3=O)ccc1O`, for which the Activity is reported as 199.3 U/L in data set [1] and 72.7 U/L in [2]. The half-inhibitory concentration (IC50) turned out to be 470 nM in [3] and 270 nM in data set [4].
For the compound `CO[C@H]1/C=C\C=C(/C)C(=O)NC2=CC(=O)C(NCCCCNC(=O)c3ccncc3)=C(C[C@@H](C)C[C@H](OC)[C@H](O)[C@@H](C)/C=C(\C)[C@@H]1OC(N)=O)C2=O`, the IC50 in data set [4] was 3450 nM.
The same measure, in the same setting: with `CO[C@H]1/C=C\C=C(/C)C(=O)NC2=CC(=O)C(NCCCCCCNC(=O)/C=C/c3ccc(OC(F)(F)F)cc3)=C(C[C@@H](C)C[C@H](OC)[C@H](O)[C@@H](C)/C=C(\C)[C@@H]1OC(N)=O)C2=O` the figure was more than 10000 nM.
In [4], `CO[C@H]1/C=C\C=C(/C)C(=O)NC2=CC(=O)C(NCCCCNC(=O)c3cccnc3)=C(C[C@@H](C)C[C@H](OC)[C@H](O)[C@@H](C)/C=C(\C)[C@@H]1OC(N)=O)C2=O` gave an IC50 of 4090 nM.
With `CO[C@H]1/C=C\C=C(/C)C(=O)NC2=CC(=O)C(NCCCCCCNC(=O)c3ccc(Br)cc3)=C(C[C@@H](C)C[C@H](OC)[C@H](O)[C@@H](C)/C=C(\C)[C@@H]1OC(N)=O)C2=O`, in [4], it took 4650 nM to reach half-maximal inhibition (IC50).
Still for that read-out and setting: for `CO[C@H]1/C=C\C=C(/C)C(=O)NC2=CC(=O)C(NCCCCCCNC(=O)/C=C/c3cccc(C)c3)=C(C[C@@H](C)C[C@H](OC)[C@H](O)[C@@H](C)/C=C(\C)[C@@H]1OC(N)=O)C2=O` the value was 2550 nM.
